# Test results taken from publication PMC7933358, “Enzymatic spiroketal formation via oxidative rearrangement of pentangular polyketides” (Nature Communications, 2021).
# Assays:
# GrhO5 = biological target: T1, GrhO5 (Streptomyces sp. JP95, UniProt Q8KSX7); experiment: identification of flavin bound to purified enzyme by HPLC; format: binding; details: co-purified cofactor
# T1 construct: full-length gene in pMAL-c5x-His (NdeI/PstI), N-terminal MBP tag kept; E. coli BL21 (DE3); amplified from cosmid pMP31
# T1 sequence (Q8KSX7 1-537): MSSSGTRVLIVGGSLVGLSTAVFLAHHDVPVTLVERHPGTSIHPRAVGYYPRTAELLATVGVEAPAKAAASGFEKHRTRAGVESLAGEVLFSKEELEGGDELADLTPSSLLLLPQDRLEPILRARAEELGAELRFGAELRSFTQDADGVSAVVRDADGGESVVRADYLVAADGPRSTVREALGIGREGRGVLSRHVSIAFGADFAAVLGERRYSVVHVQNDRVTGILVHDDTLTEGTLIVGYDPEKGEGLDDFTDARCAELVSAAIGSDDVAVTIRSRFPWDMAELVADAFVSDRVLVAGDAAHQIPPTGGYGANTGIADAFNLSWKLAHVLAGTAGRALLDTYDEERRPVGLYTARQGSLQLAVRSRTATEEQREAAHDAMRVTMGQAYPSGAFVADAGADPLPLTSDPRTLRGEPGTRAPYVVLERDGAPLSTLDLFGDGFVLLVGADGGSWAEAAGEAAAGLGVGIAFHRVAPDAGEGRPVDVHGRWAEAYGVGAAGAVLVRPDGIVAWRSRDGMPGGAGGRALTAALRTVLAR
# GrhO6 = biological target: T2, GrhO6 (Streptomyces sp. JP95, UniProt Q8KSX5); experiment: as above; format: binding; details: co-purified cofactor, tight, non-covalent
# T2 construct: full-length gene in pETDuet-1 (EcoRI/PstI), polyhistidine tag kept; E. coli BL21 (DE3)
# T2 sequence (Q8KSX5 1-520): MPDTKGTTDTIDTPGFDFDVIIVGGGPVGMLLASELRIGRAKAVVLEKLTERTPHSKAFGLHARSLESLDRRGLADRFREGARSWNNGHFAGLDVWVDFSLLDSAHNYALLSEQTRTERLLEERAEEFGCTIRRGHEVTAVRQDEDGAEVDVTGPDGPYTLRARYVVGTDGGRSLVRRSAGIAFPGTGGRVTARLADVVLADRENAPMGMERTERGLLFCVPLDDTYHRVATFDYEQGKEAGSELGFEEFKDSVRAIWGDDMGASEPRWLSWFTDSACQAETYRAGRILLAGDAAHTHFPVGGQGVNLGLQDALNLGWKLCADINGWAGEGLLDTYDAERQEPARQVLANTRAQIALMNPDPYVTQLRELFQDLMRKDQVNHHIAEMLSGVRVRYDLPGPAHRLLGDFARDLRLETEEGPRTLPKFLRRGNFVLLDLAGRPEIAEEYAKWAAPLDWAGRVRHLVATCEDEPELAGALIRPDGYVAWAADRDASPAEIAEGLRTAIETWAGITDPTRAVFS
structure (smiles),measurement,setting,value
Cc1cc2nc3c(=O)[nH]c(=O)nc-3n(C[C@H](O)[C@H](O)[C@H](O)COP(=O)(O)OP(=O)(O)OC[C@H]3O[C@@H](n4cnc5c(N)ncnc54)[C@H](O)[C@@H]3O)c2cc1C [FAD],identification of flavin bound to purified enzyme by HPLC,GrhO5,bound flavin cofactor that was further determined as flavin adenine dinucleotide
same,identification of flavin bound to purified enzyme by HPLC,GrhO6,"contained a tightly, but non-covalently bound FAD cofactor similar to GrhO5"
